Series [1] relates to neuroepithelial cells. The note with it: mouse, in vivo.
Description: (§2) Mouse models of diabetic embryopathy. The mouse model of diabetic embryopathy was described previously [4,22,36,45,46]. Briefly, ten-week old female mice were intravenously injected daily with 75 mg/kg STZ over two days to induce diabetes. Diabetes was defined as 12 hours fasting blood glucose level of ≥250 mg/dL. Male and female mice were paired at 3:00 PM, and day 0.5 (E0.5) of pregnancy was established by the presence of the vaginal plug at 8:00 AM the next morning. Female mice injected with vehicle served as the nondiabetic controls. On E7.5, E8.5, E9.5 or E10.5 mice were euthanized and conceptuses were dissected out of the uteri for biochemical and molecular analysis.
(§3) Immunoblotting. Immunoblotting was performed as described by Yang at el [4]. Lysis buffer (Cell Signaling Technology, Danvers, MA) containing a protease inhibitor cocktail (Sigma, St Louis, MO) was used to extract protein. Equal amounts of protein and Precision Plus Protein Standards (Bio-Rad, Hercules, CA) were resolved by SDS-PAGE and transferred onto Immunobilon-P membranes (Millipore, Billerica, MA). […] Signals were detected using the SuperSignal West Femto Maximum Sensitivity Substrate kit (Thermo Fisher Scientific, Waltham, MA). […]
In series [2] the test system is (p)-PERK, (p)-IRE1α, (p)-eIF2α and CHOP. The note with it: mouse, in vivo.
Description: as §2, §3
For series [3] the following is noted: mouse, in vivo.
Description: Briefly, ten-week old female mice were intravenously injected daily with 75 mg/kg STZ over two days to induce diabetes. Diabetes was defined as 12 hours fasting blood glucose level of ≥250 mg/dL. Male and female mice were paired at 3:00 PM, and day 0.5 (E0.5) of pregnancy was established by the presence of the vaginal plug at 8:00 AM the next morning. Female mice injected with vehicle served as the nondiabetic controls. On E7.5, E8.5, E9.5 or E10.5 mice were euthanized and conceptuses were dissected out of the uteri for biochemical and molecular analysis. The exosome inhibitor GW4869 (Sigma, St, Louis, MO) was injected daily to nondiabetic pregnant dams from E7.0 to E8.0. NTDs were examined at E10.5.
Series [4] has as its system exosome production in the developing embryos. In words: Exosome profile, exosome numbers and CD63 expression in E8.5 embryos after GW4869 injections. In kind it is in vivo, mouse. How it is done:
Mouse models of diabetic embryopathy. […] NTDs were examined at E10.5.
Exosome extraction and labelling. Cells and debris were removed from cell culture media via centrifugation at 2000×g for 30 minutes at 4° C. Supernatants containing the cell-free culture media were transferred to a new tube without disturbing the pellet. Total Exosome Isolation (#4478359, Invitrogen, Carlsbad, CA) at 0.5 volume of the collected supernatants was added to each tube. The cell culture media/reagent mixture was mixed well via vortex and pipetting up and down until it became a homogenous solution, and then was incubated at 4° C. overnight. After incubation, the samples were centrifuged at 10,000×g for 1 hour at 4° C. and the supernatants were discarded. Exosomes were contained in the pellet at the bottom of the tube (not visible in most cases). The pellet was re-suspended in 1 ml of 1×PBS, and NanoSight (#NS300, Malvern Panalytical) was used to measure the exosomes. The presence of exosomes was confirmed by Western blot using the exosomal marker CD63 (Santa Cruz Biotechnology, Dallas, TX). Exosomes were suspended in 1 ml Diluent C (Sigma, St Louis, MO) and labeled by incubating with PKH67 fluorescent dye (Sigma, St Louis, MO) for 5 min in the dark at room temperature. […]

The test system of series [5] is embryos of nondiabetic dams. The note with it: mouse, in vivo.
Description: Mouse models of diabetic embryopathy. […] Briefly, ten-week old female mice were intravenously injected daily with 75 mg/kg STZ over two days to induce diabetes. Diabetes was defined as 12 hours fasting blood glucose level of ≥250 mg/dL. Male and female mice were paired at 3:00 PM, and day 0.5 (E0.5) of pregnancy was established by the presence of the vaginal plug at 8:00 AM the next morning. Female mice injected with vehicle served as the nondiabetic controls. On E7.5, E8.5, E9.5 or E10.5 mice were euthanized and conceptuses were dissected out of the uteri for biochemical and molecular analysis. The exosome inhibitor GW4869 (Sigma, St, Louis, MO) was injected daily to nondiabetic pregnant dams from E7.0 to E8.0. NTDs were examined at E10.5.
Statistical analyses. Data were presented as means±standard errors (SE). In animal studies, experiments were repeated at least three times, and embryonic samples from each replicate were from different dams. Statistical differences were determined by one-way analysis of variance (ANOVA) using the SigmaPlot 12.5 (SigmaStat, San Jose, CA). In one-way ANOVA analysis, Tukey test was used to estimate the significance of the results (P<0.05). The Chi square test and Fisher Exact test were used to estimate the significance of NTD incidence.
The test system of series [6] is Fgf2 promoter in yolk sac endoderm PYS2 cell line. Description: Fgf2 promoter luciferase reporter activity under high glucose. The conditions noted are these: suppressed by high glucose (25 mM glucose), PYS2 cells. In kind it is cell-based. On the procedure: (§1) Cell culture and transfection. The C17.2 mouse neural stem cell line from the European Collection of Cell Culture (Salisbury, UK) and the yolk sac endoderm PYS2 cell line (ATCC® CRL2745™) were maintained in DMEM (5 mM glucose) supplemented with 10% FBS, 100 U/ml penicillin, and […] streptomycin at 37° C. in a humidified atmosphere of 5% CO2. Mouse recombinant FGF2 (#3139-FB; R&D Systems, Minneapolis, MN) was used at a final concentration of 10 ng/ml. Lipofectamine 2000 (Invitrogen, Carlsbad, CA) was used according to the manufacturer's protocol for transfection of siFGF2 and control siRNA (Invitrogen, Carlsbad, CA) into the cells. After seeding for 12 h, cells were transfected with recombinant FGF2 and cultured in 1% FBS for 8 h, after which cells were cultured in 10% FBS and collected after 48 h for analysis.
A general note: Reporter assays use an easily measured gene product as a stand-in for the process of interest.

Series [7] has as its system Survivin promoter. In words: Luciferase reporter activity driven by the Survivin promoter. In kind it is cell-based. How it is done: as §1
Series [8] concerns yolk sac cell line. Description: Exosome number and Survivin protein in exosomes of a yolk sac cell line. In kind it is cell-based. On the procedure: as §1
Exosome extraction and labelling. Cells and debris were removed from cell culture media via centrifugation at 2000×g for 30 minutes at 4° C. Supernatants containing the cell-free culture media were transferred to a new tube without disturbing the pellet. Total Exosome Isolation (#4478359, Invitrogen, Carlsbad, CA) at 0.5 volume of the collected supernatants was added to each tube. The cell culture media/reagent mixture was mixed well via vortex and pipetting up and down until it became a homogenous solution, and then was incubated at 4° C. overnight. […]

Series [9] has as its system Survivin. In words: Survivin mRNA and protein expression in normal and high glucose culture. In kind it is cell-based. The note with it: normal glucose 5 mM / high glucose 25 mM culture. How it is done:
as §1
Real-time PCR (RT-PCR). mRNA was isolated from embryos using the RNeasy Mini kit (Qiagen, Hilden, Germany), and then reversely transcribed using the high-capacity cDNA archive kit (Applied Biosystem, Grand Island, NY). Real time-PCR for Fgf2, Fgfr, Bmp4, Vegfr2, mVegfr1, Calnexin, GRP94, PDIA, BiP, IRE1α, CHOP, Survivin and β-actin were performed using the Maxima SYBR Green/ROX qPCR Master Mix assay (Thermo Fisher Scientific, Waltham, MA) in the Step One Plus system (Applied Biosystem, Grand Island, NY).

In series [10] the test system is isolated E8 Flk-1^+ progenitors. Description: Survivin protein in exosomes of isolated E8 Flk-1+ progenitors. The conditions noted are these: high glucose. In kind it is cell-based, mouse. How it is done:
Isolation of Flk-1+ endothelial progenitor cells. Flk-1^+ progenitor cells were isolated from the E8 yolk sac. Yolk sacs were minced in phosphate-buffered saline PBS (Thermo Fisher Scientific, Waltham, MA), digested with 1 mg/ml of collagenase type I (Sigma, St Louis, MO) and incubated on an orbital shaker at 37° C. for 30-45 min. Following the collagenase treatment, cells were washed twice with growth medium (EBM-2, fetal bovine serum (10%), hFGF-basic (0.5 ml), hydrocortisone (0.2 ml), VEGF (0.5 ml), IGF-1 (0.5 ml), ascorbic acid (0.5 ml), hEGF (0.5 ml), GA-100 (0.5 ml)) before being plated. Cells were trypsinized (Lonza, Walkersville, MD) and sorted for Flk-1 with MACS microbeads (Miltenyi Biotec, Bergisch Gladbach, Germany) as per the kit instructions. The Flk-1^+ progenitor cells were collected and cultured in growth medium as mentioned above.
Exosome extraction and labelling. Cells and debris were removed from cell culture media via centrifugation at 2000×g for 30 minutes at 4° C. Supernatants containing the cell-free culture media were transferred to a new tube without disturbing the pellet. Total Exosome Isolation (#4478359, Invitrogen, Carlsbad, CA) at 0.5 volume of the collected supernatants was added to each tube. […]

The values that follow come from patent US20240285728A1, “TARGETED PROTEIN DELIVERY TO MAMMALIAN EMBRYOS AND THERAPEUTIC APPLICATIONS USING EXOSOMES” (University of Maryland, Baltimore, priority 2021, published 2024).

For `O=C(/C=C/c1ccc(/C=C/C(=O)Nc2ccc(C3=NCCN3)cc2)cc1)Nc1ccc(C2=NCCN2)cc1` [GW4869], in series [1], the neuroepithelial cell apoptosis entry is reported as “triggered”. Also, in series [2], the “ER stress in neurulation stage embryos” value was “triggered”. For the same molecule, the “detection in the embryo” value in [3] was “reached the embryo”. Moreover, the “exosome production in the developing embryos” value in [4] is recorded as “inhibited”. Besides, in series [5], the “NTD Embryos” value turned out to be 7, the NTD induction result is given as “mimicked the teratogenic effect of maternal diabetes” and the NTD rate was 7.29%.

For the molecule `O=C(O)C(Cc1c[nH]c2ccccc12)N1C(=O)c2ccccc2C1=O` (stereo not drawn) [RG108], in [6], the “Fgf2 promoter-driven luciferase activity” value is listed as “restored”.

For “FGF2: recombinant fibroblast growth factor 2, used at 10 ng/ml”, the “luciferase reporter activity driven by the Survivin promoter” value in series [7] is “stimulated”. In addition, in series [8], the “Survivin in exosomal cargo” value is on record as “rescued”. In addition, the “Survivin mRNA and protein expression” value in [9] is “normalized”. Besides, the “Survivin expression in exosomes” value in series [10] was “abolished this suppression”.
